In patent US6355799B1, “Substituted benzene compounds, process for their preparation, and herbicidal and defoliant compositions containing them” (ISK Americas Incorporated, priority 1997, dated 2002):

Assays:
Assay type in all cases: in vivo
[1] = test system: sicklepod (Cassia obtusifolia, CASOB); experiment: Pre-emerge test, greenhouse herbicide activity screening; conditions: rating scale 0-100, 14 days after application
Method in brief: (§1)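 Fourteen days after spraying, crop and weed injury was graded visually from 0, no effect, to 100, every plant dead. Test substances were dissolved in acetone and applied at 15–1000 g ai/ha with a flat-fan nozzle. Application was either pre-emergence, one day after sowing, or post-emergence at the 2–3 leaf stage.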

[2] = test system: johnsongrass (Sorghum halepense, SORHA); experiment: as above; conditions: rating scale 0-100, 14 days after application
Method in brief: as §1

[3] = test system: ivyleaf morningglory (Ipomoea hederacea, IPOHE); experiment: as above; conditions: rating scale 0-100, 14 days after application
Method in brief: as §1

[4] = test system: barnyardgrass (Echinochloa crus-galli, ECHCG); experiment: as above; conditions: rating scale 0-100, 14 days after application
Method in brief: as §1

[5] = test system: velvetleaf (Abutilon theophrasti, ABUTH); experiment: as above; conditions: rating scale 0-100, 14 days after application
Method in brief: as §1

[6] = test system: lambsquarters (Chenopodium album, CHEAL); experiment: as above; conditions: rating scale 0-100, 14 days after application
Method in brief: as §1

[7] = test system: large crabgrass (Digitaria sanguinalis, DIGSA); experiment: as above; conditions: rating scale 0-100, 14 days after application
Method in brief: as §1

[8] = test system: green foxtail (Setaria viridis, SETVI); experiment: as above; conditions: rating scale 0-100, 14 days after application
Method in brief: as §1

[9] = test system: upland rice (Oryza sp., var. Tebonnet, RICE); experiment: Pre-emerge test, crop safety; conditions: rating scale 0-100, 14 days after application
Method in brief: (§2)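 Plants grown in 10 cm pots of sandy loam mix received acetone-dissolved compounds through a moving flat-fan nozzle. Doses ranged from 15 to 1000 g ai/ha. Pre-emerge pots were seeded one day earlier, post-emerge pots 8–21 days earlier. Fourteen days on, each pot was graded 0–100 for damage.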

[10] = test system: field corn (Zea mays L., var. Dekalb 535, CORN); experiment: Pre-emerge test, crop safety; conditions: rating scale 0-100, 14 days after application
Method in brief: as §2

[11] = test system: redroot pigweed (Amaranthus retroflexus, AMARE); experiment: Pre-emerge test, greenhouse herbicide activity screening; conditions: rating scale 0-100, 14 days after application
Method in brief: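 Sandy loam pots; pre-emerge: sown 1 d pre-spray, surface-watered after, then bottom-watered. Post-emerge: sown 8–21 d before, 2–3 leaf stage, + 0.25% v/v NIS, bottom-watered. Acetone, 187 l/ha track spray, 15–1000 g ai/ha. 0–100 injury score, day 14.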

[12] = test system: sicklepod (Cassia obtusifolia, CASOB); experiment: Post-emerge test, greenhouse herbicide activity screening; conditions: rating scale 0-100 (0 no damage, 100 complete death), 14 days after application
Method in brief: as §2

[13] = test system: common ragweed (Ambrosia artemisizfolia L., AMBEL); experiment: as above; conditions: rating scale 0-100 (0 no damage, 100 complete death), 14 days after application
Method in brief: as §2

[14] = test system: johnsongrass (Sorghum halepense, SORHA); experiment: as above; conditions: rating scale 0-100 (0 no damage, 100 complete death), 14 days after application
Method in brief: as §2

[15] = test system: ivyleaf morningglory (Ipomoea hederacea, IPOHE); experiment: as above; conditions: rating scale 0-100 (0 no damage, 100 complete death), 14 days after application
Method in brief: as §2

[16] = test system: barnyardgrass (Echinochloa crus-galli, ECHCG); experiment: as above; conditions: rating scale 0-100 (0 no damage, 100 complete death), 14 days after application
Method in brief: as §2

[17] = test system: redroot pigweed (Amaranthus retroflexus, AMARE); experiment: as above; conditions: rating scale 0-100 (0 no damage, 100 complete death), 14 days after application
Method in brief: as §2

[18] = test system: velvetleaf (Abutilon theophrasti, ABUTH); experiment: as above; conditions: rating scale 0-100 (0 no damage, 100 complete death), 14 days after application
Method in brief: as §2

[19] = test system: lambsquarters (Chenopodium album, CHEAL); experiment: as above; conditions: rating scale 0-100 (0 no damage, 100 complete death), 14 days after application
Method in brief: as §2

[20] = test system: large crabgrass (Digitaria sanguinalis, DIGSA); experiment: as above; conditions: rating scale 0-100 (0 no damage, 100 complete death), 14 days after application
Method in brief: as §2

[21] = test system: green foxtail (Setaria viridis, SETVI); experiment: as above; conditions: rating scale 0-100 (0 no damage, 100 complete death), 14 days after application
Method in brief: as §2

[22] = test system: upland rice (Oryza sp., var. Tebonnet, RICE); experiment: Post-emerge test, crop safety; conditions: rating scale 0-100 (0 no damage, 100 complete death), 14 days after application
Method in brief: as §1

[23] = test system: field corn (Zea mays L., var. Dekalb 535, CORN); experiment: Post-emerge test, crop safety; conditions: rating scale 0-100 (0 no damage, 100 complete death), 14 days after application
Method in brief: as §1

CCOC(=O)C(Br)Cc1c(OC)c(Cl)cc(F)c1-n1c(=O)cc(C(F)(F)F)n(C)c1=O (single isomer, unassigned) [14-33]
Pre-emerge herbicidal activity, phytotoxicity rating CASOB ([1]; 63 g ai/ha): 0
Pre-emerge herbicidal activity, phytotoxicity rating CASOB ([1]; 250 g ai/ha): 0
Pre-emerge herbicidal activity, phytotoxicity rating SORHA ([2]; 63 g ai/ha): 0
Pre-emerge herbicidal activity, phytotoxicity rating SORHA ([2]; 250 g ai/ha): 30
Pre-emerge herbicidal activity, phytotoxicity rating IPOHE ([3]; 63 g ai/ha): 0
Pre-emerge herbicidal activity, phytotoxicity rating IPOHE ([3]; 250 g ai/ha): 0
Pre-emerge herbicidal activity, phytotoxicity rating ECHCG ([4]; 63 g ai/ha): 0
Pre-emerge herbicidal activity, phytotoxicity rating ECHCG ([4]; 250 g ai/ha): 0
Pre-emerge herbicidal activity, phytotoxicity rating ABUTH ([5]; 63 g ai/ha): 20
Pre-emerge herbicidal activity, phytotoxicity rating ABUTH ([5]; 250 g ai/ha): 90
Pre-emerge herbicidal activity, phytotoxicity rating CHEAL ([6]; 63 g ai/ha): 0
Pre-emerge herbicidal activity, phytotoxicity rating CHEAL ([6]; 250 g ai/ha): 90
Pre-emerge herbicidal activity, phytotoxicity rating DIGSA ([7]; 63 g ai/ha): 0
Pre-emerge herbicidal activity, phytotoxicity rating DIGSA ([7]; 250 g ai/ha): 99
Pre-emerge herbicidal activity, phytotoxicity rating SETVI ([8]; 63 g ai/ha): 0
Pre-emerge herbicidal activity, phytotoxicity rating SETVI ([8]; 250 g ai/ha): 50
Pre-emerge phytotoxicity rating, crop damage RICE ([9]; 63 g ai/ha): 0
Pre-emerge phytotoxicity rating, crop damage RICE ([9]; 250 g ai/ha): 10
Pre-emerge phytotoxicity rating, crop damage CORN ([10]; 63 g ai/ha): 10
Pre-emerge phytotoxicity rating, crop damage CORN ([10]; 250 g ai/ha): 20
Pre-emerge herbicidal activity, phytotoxicity rating AMARE ([11]; 63 g ai/ha): 100
Pre-emerge herbicidal activity, phytotoxicity rating AMARE ([11]; 250 g ai/ha): 100
Post-emerge Herbicidal Activity, phytotoxicity rating CASOB ([12]; Rate 63 g ai/ha): 0
Post-emerge Herbicidal Activity, phytotoxicity rating CASOB ([12]; Rate 250 g ai/ha): 0
Post-emerge Herbicidal Activity, phytotoxicity rating AMBEL ([13]; Rate 63 g ai/ha): 0
Post-emerge Herbicidal Activity, phytotoxicity rating AMBEL ([13]; Rate 250 g ai/ha): 100
Post-emerge Herbicidal Activity, phytotoxicity rating SORHA ([14]; Rate 63 g ai/ha): 10
Post-emerge Herbicidal Activity, phytotoxicity rating SORHA ([14]; Rate 250 g ai/ha): 95
Post-emerge Herbicidal Activity, phytotoxicity rating IPOHE ([15]; Rate 63 g ai/ha): 20
Post-emerge Herbicidal Activity, phytotoxicity rating IPOHE ([15]; Rate 250 g ai/ha): 20
Post-emerge Herbicidal Activity, phytotoxicity rating ECHCG ([16]; Rate 63 g ai/ha): 100
Post-emerge Herbicidal Activity, phytotoxicity rating ECHCG ([16]; Rate 250 g ai/ha): 100
Post-emerge Herbicidal Activity, phytotoxicity rating AMARE ([17]; Rate 63 g ai/ha): 100
Post-emerge Herbicidal Activity, phytotoxicity rating AMARE ([17]; Rate 250 g ai/ha): 100
Post-emerge Herbicidal Activity, phytotoxicity rating ABUTH ([18]; Rate 63 g ai/ha): 90
Post-emerge Herbicidal Activity, phytotoxicity rating ABUTH ([18]; Rate 250 g ai/ha): 100
Post-emerge Herbicidal Activity, phytotoxicity rating CHEAL ([19]; Rate 63 g ai/ha): 20
Post-emerge Herbicidal Activity, phytotoxicity rating CHEAL ([19]; Rate 250 g ai/ha): 70
Post-emerge Herbicidal Activity, phytotoxicity rating DIGSA ([20]; Rate 63 g ai/ha): 70
Post-emerge Herbicidal Activity, phytotoxicity rating DIGSA ([20]; Rate 250 g ai/ha): 100
Post-emerge Herbicidal Activity, phytotoxicity rating SETVI ([21]; Rate 63 g ai/ha): 40
Post-emerge Herbicidal Activity, phytotoxicity rating SETVI ([21]; Rate 250 g ai/ha): 90
Post-emerge phytotoxicity rating RICE (crop damage) ([22]; Rate 63 g ai/ha): 0
Post-emerge phytotoxicity rating RICE (crop damage) ([22]; Rate 250 g ai/ha): 0
Post-emerge phytotoxicity rating CORN (crop damage) ([23]; Rate 63 g ai/ha): 10
Post-emerge phytotoxicity rating CORN (crop damage) ([23]; Rate 250 g ai/ha): 95
